Source: ChEMBL document CHEMBL5537147, “Development of membrane-targeting TPP+-chloramphenicol conjugates to combat methicillin-resistant staphylococcus aureus (MRSA) infections” (Eur J Med Chem, 2024)

Experiments:
Pseudomonas aeruginosa [1] = assay: Antibacterial activity against Pseudomonas aeruginosa 535 assessed as inhibition of bacterial growth incubated for 16 to 18 hrs by CLSI based two-fold serial dilution method; format: functional; conditions: time 16-18 hrs
Acinetobacter baumannii [2] = assay: Antibacterial activity against Acinetobacter baumannii 1310 assessed as inhibition of bacterial growth incubated for 16 to 18 hrs by CLSI based two-fold serial dilution method; format: functional; conditions: time 16-18 hrs
Acinetobacter baumannii [3] = assay: Antibacterial activity against Acinetobacter baumannii 1309 assessed as inhibition of bacterial growth incubated for 16 to 18 hrs by CLSI based two-fold serial dilution method; format: functional; conditions: time 16-18 hrs
Staphylococcus aureus [4] = assay: Antibacterial activity against methicillin-resistant Staphylococcus aureus USA300 assessed as inhibition of bacterial growth incubated for 16 to 18 hrs by CLSI based two-fold serial dilution method; format: functional; conditions: time 16-18 hrs
Staphylococcus aureus [5] = assay: Antibacterial activity against methicillin-resistant Staphylococcus aureus 3390 assessed as inhibition of bacterial growth incubated for 16 to 18 hrs by CLSI based two-fold serial dilution method; format: functional; conditions: time 16-18 hrs
[6] = Cytotoxicity against human L02 cells assessed as inhibition of cell growth incubated for 24 hrs by MTT assay; format: toxicity, cell-based
Staphylococcus aureus [7] = assay: Antibacterial activity against methicillin-resistant Staphylococcus aureus 3392 assessed as inhibition of bacterial growth incubated for 16 to 18 hrs by CLSI based two-fold serial dilution method; format: functional; conditions: time 16-18 hrs
Pseudomonas aeruginosa [8] = assay: Antibacterial activity against Pseudomonas aeruginosa 408 assessed as inhibition of bacterial growth incubated for 16 to 18 hrs by CLSI based two-fold serial dilution method; format: functional; conditions: time 16-18 hrs
Staphylococcus aureus [9] = assay: Antibacterial activity against methicillin-resistant Staphylococcus aureus 330041 assessed as inhibition of bacterial growth incubated for 16 to 18 hrs by CLSI based two-fold serial dilution method; format: functional; conditions: time 16-18 hrs

Row | Compound | MIC (Pseudomonas aeruginosa [1]) [µg/mL] | MIC (Acinetobacter baumannii [2]) [µg/mL] | MIC (Acinetobacter baumannii [3]) [µg/mL] | MIC (Staphylococcus aureus [4]) [µg/mL] | MIC (Staphylococcus aureus [5]) [µg/mL] | IC50 at 24 h [6] [µg/mL] | MIC (Staphylococcus aureus [7]) [µg/mL] | MIC (Pseudomonas aeruginosa [8]) [µg/mL] | MIC (Staphylococcus aureus [9]) [µg/mL]
1 | Br.CN(C)c1ccc([P+](CCCCCCCCCC(=O)OC[C@H](NC(=O)C(Cl)Cl)[C@H](O)c2ccc([N+](=O)[O-])cc2)(c2ccc(N(C)C)cc2)c2ccc(N(C)C)cc2)cc1 | 16 | 32 | 16 | 1 | 1 | 12.4 | 1 | 4 | 1
2 | Br.O=C(CCCCCCCCCCC[P+](c1ccccc1)(c1ccccc1)c1ccccc1)OC[C@H](NC(=O)C(Cl)Cl)[C@H](O)c1ccc([N+](=O)[O-])cc1 | > 64 | > 64 | > 64 | 2 | 2 | 16.5 | 2 | > 64 | 2
3 | Br.O=C(CCCCCCCCCCCCCCCCC[P+](c1ccccc1)(c1ccccc1)c1ccccc1)OC[C@H](NC(=O)C(Cl)Cl)[C@H](O)c1ccc([N+](=O)[O-])cc1 | > 64 | > 64 | > 64 | 2 | 2 | 7.9 | 2 | > 64 | 2
4 | COc1cccc([P+](CCCCCCCCCC(=O)O)(c2cccc(OC)c2)c2cccc(OC)c2)c1.[Br-] | > 64 | > 64 | 64 | 32 | 32 | 15.4 | 16 | 64 | 32
5 | Br.O=C(CCCCCCCCC[P+](c1cccc(F)c1)(c1cccc(F)c1)c1cccc(F)c1)OC[C@H](NC(=O)C(Cl)Cl)[C@H](O)c1ccc([N+](=O)[O-])cc1 | > 64 | > 64 | > 64 | 1 | 1 | 28.7 | 1 | > 64 | 1
6 | Br.O=C(COCCOCCOCC[P+](c1ccc(F)cc1)(c1ccc(F)cc1)c1ccc(F)cc1)OC[C@@H](NC(=O)C(Cl)Cl)[C@@H](O)c1ccc([N+](=O)[O-])cc1 | > 64 | > 64 | > 64 | 8 | 8 | > 64 | 8 | > 64 | 8
7 | O=C(O)CCCCCCCCC[P+](c1ccc(Cl)cc1)(c1ccc(Cl)cc1)c1ccc(Cl)cc1.[Br-] | > 64 | > 64 | > 64 | > 64 | > 64 | 30.8 | > 64 | > 64 | > 64
8 | O=C(O)CCCCCCCCCCC[P+](c1ccccc1)(c1ccccc1)c1ccccc1.[Br-] | > 64 | > 64 | > 64 | > 64 | > 64 | > 64 | > 64 | > 64 | > 64
9 | O=C(O)CCCC[P+](c1ccccc1)(c1ccccc1)c1ccccc1.[Br-] | > 64 | > 64 | > 64 | > 64 | > 64 | > 64 | > 64 | > 64 | > 64
10 | Br.Cc1ccc([P+](CCCCCCCCCC(=O)OC[C@H](NC(=O)C(Cl)Cl)[C@H](O)c2ccc([N+](=O)[O-])cc2)(c2ccc(C)cc2)c2ccc(C)cc2)cc1 | > 64 | > 64 | > 64 | 0.5 | 0.5 | 14.7 | 0.5 | > 64 | 0.5
